Measurements published in patent US20260098030A1, “NEGATIVE ALLOSTERIC MODULATORS OF METABOTROPIC GLUTAMATE RECEPTOR 2” (Vanderbilt University, priority 2022, published 2026).

Tests used:
human mGlu2 = molecular target: T1, human mGlu2 (Homo sapiens, UniProt Q14416); assay: mGlu GIRK cell-based thallium flux assay, human mGlu2; settings: HEK-293 cells co-expressing human mGlu2 and GIRK, EC80 glutamate
T1 construct: expressed in transfected cells; host or cells: HEK-293 cells stably co-expressing GIRK channels
T1 sequence (Q14416 19-872): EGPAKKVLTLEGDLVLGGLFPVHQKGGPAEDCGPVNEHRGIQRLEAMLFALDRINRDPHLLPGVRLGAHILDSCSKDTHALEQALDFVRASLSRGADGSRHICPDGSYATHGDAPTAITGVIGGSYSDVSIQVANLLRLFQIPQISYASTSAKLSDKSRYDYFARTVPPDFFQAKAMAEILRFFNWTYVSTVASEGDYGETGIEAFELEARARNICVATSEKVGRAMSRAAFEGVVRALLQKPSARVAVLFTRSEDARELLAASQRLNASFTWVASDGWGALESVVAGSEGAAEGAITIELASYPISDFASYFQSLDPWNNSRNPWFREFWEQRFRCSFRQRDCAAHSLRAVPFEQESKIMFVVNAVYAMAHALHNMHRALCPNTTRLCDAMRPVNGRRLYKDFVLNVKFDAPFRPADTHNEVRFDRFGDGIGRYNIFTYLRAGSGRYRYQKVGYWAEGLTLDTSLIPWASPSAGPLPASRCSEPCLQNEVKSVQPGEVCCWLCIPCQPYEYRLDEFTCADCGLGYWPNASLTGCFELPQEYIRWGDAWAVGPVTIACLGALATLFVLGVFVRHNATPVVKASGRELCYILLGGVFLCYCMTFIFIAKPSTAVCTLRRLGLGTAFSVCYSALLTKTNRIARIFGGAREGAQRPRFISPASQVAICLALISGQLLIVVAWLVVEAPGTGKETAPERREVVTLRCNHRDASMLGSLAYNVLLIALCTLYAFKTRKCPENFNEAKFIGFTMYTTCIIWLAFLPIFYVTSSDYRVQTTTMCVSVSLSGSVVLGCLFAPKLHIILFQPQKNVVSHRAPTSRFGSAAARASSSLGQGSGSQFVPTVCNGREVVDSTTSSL
Summary of the method: (§1)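 HEK-293 cells stably co-expressing GIRK with human mGlu3, human mGlu2 or rat mGlu2 were loaded 1 h at 25° C with Thallos dye, then given compound (30 μM to 1.5 nM final, 10-point) for 2 min 20 s before EC80 glutamate plus thallium. Baseline-corrected fluorescence slope, normalized to ECmax glutamate, fitted to 4-parameter logistic for IC50.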

rat mGlu2 = molecular target: T2, rat mGlu2 (Rattus norvegicus, UniProt P31421); assay: mGlu GIRK cell-based thallium flux assay, rat mGlu2; settings: HEK-293 cells co-expressing rat mGlu2 and GIRK, EC80 glutamate
T2 construct: expressed in transfected cells; host or cells: HEK-293 cells stably co-expressing GIRK channels
T2 sequence (P31421 19-872): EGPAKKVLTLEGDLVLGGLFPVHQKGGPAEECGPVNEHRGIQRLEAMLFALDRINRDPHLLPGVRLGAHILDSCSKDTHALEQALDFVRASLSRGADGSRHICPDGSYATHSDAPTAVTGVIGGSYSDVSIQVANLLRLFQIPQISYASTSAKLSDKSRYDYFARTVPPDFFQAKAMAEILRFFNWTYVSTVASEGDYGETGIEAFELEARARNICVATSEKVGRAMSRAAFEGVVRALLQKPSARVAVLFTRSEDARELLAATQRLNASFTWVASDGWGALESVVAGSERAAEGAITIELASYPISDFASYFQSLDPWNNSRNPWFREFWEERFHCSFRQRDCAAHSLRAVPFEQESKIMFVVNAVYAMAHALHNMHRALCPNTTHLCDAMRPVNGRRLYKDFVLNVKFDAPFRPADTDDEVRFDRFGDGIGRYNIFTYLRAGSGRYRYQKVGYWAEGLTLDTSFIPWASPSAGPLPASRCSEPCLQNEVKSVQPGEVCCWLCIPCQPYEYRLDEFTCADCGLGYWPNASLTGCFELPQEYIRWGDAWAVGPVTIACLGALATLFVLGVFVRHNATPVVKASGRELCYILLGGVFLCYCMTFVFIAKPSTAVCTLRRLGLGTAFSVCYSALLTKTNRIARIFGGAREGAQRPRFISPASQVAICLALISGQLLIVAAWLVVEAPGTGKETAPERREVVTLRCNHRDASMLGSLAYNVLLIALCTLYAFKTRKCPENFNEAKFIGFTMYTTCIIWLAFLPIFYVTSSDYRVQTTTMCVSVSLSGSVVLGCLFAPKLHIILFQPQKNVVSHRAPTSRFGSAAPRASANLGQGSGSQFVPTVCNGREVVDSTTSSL
Summary of the method: as §1

Rat mGlu3 = Rat mGlu3 (UniProt P31422); assay: mGlu GIRK cell-based thallium flux assay, mGlu3; settings: HEK-293 cells co-expressing mGlu3 and GIRK, EC80 glutamate

Row | IC50 (human mGlu2) [nM] | IC50 (rat mGlu2) [nM] | IC50 (Rat mGlu3) [nM] | Compound
1 | > 10000 | > 10000 | – | Cn1cc(-c2cc3c(cc2-c2ccc(F)cc2)C(=O)NC3)cn1 [Compound 1, 6-(4-fluorophenyl)-5-(1-methyl-1H-pyrazol-4-yl)isoindolin-1-one]
2 | 5840 | > 10000 | – | O=C1NCc2cc(-c3cnco3)c(-c3ccc(F)cc3)cc21 [Compound 2, 6-(4-fluorophenyl)-5-(oxazol-5-yl)isoindolin-1-one]
3 | > 10000 | > 10000 | – | O=C1NCc2cc(-c3ccncc3)c(-c3ccc(F)cc3)cc21 [Compound 4, 6-(4-fluorophenyl)-5-(pyridin-4-yl)isoindolin-1-one]
4 | – | 839 | 5820 | Cc1ncc(-c2cc3c(cc2-c2ccc(F)cc2)C(=O)NC3)s1 [Compound 5, 6-(4-fluorophenyl)-5-(2-methylthiazol-5-yl)isoindolin-1-one]
5 | 1560 | > 10000 | – | Cn1cc2cc(-c3cc4c(cc3-c3ccc(F)cc3)C(=O)NC4)ccc2n1 [Compound 7, 6-(4-fluorophenyl)-5-(2-methyl-2H-indazol-5-yl)isoindolin-1-one]
6 | – | 1280 | 1980 | Cc1c(-c2cc3c(cc2-c2ccc(F)cc2)C(=O)NC3)ccc2[nH]ncc12 [Compound 9, 6-(4-fluorophenyl)-5-(4-methyl-1H-indazol-5-yl)isoindolin-1-one]
7 | – | 953 | > 10000 | O=C1NCc2cc(-c3ccc4ocnc4c3)c(-c3ccc(F)cc3F)cc21 [Compound 24, 5-(benzo[d]oxazol-5-yl)-6-(2,4-difluorophenyl)isoindolin-1-one]
8 | – | 953 | > 10000 | Cc1ccc(-c2cc3c(cc2-c2ccc(F)cc2)C(=O)NC3)nc1 [Compound 52, 6-(4-fluorophenyl)-5-(5-methylpyridin-2-yl)isoindolin-1-one]
9 | – | 762 | > 10000 | O=C1NCc2cc(C3CCOCC3)c(-c3ccc(F)cc3)cc21 [Compound 64, 6-(4-fluorophenyl)-5-(tetrahydro-2H-pyran-4-yl)isoindolin-1-one]
10 | – | 659 | > 10000 | Cc1ccc(-c2cc3c(cc2-c2ccc(F)cc2F)C(=O)NC3)cn1 [Compound 69, 6-(2,4-difluorophenyl)-5-(6-methylpyridin-3-yl)isoindolin-1-one]
11 | – | – | > 10000 | O=C1NCc2cc(-c3cccnc3C3CC3)c(-c3ccc(F)cc3F)cc21 [Compound 74, 5-(2-cyclopropylpyridin-3-yl)-6-(2,4-difluorophenyl)isoindolin-1-one]
12 | 185 | 225 | – | Cc1c(-c2cc3c(cc2-c2ccc(F)cc2F)C(=O)NC3)cc(C#N)n1C [Compound 90, 4-(6-(2,4-difluorophenyl)-1-oxoisoindolin-5-yl)-1,5-dimethyl-1H-pyrrole-2-carbonitrile]
13 | – | 697 | > 10000 | Cc1cc(C#N)cc(-c2cc3c(cc2-c2ccc(F)cc2F)C(=O)NC3)c1 [Compound 91, 3-(6-(2,4-difluorophenyl)-1-oxoisoindolin-5-yl)-5-methylbenzonitrile]
14 | > 10000 | – | – | N#Cc1cccc(-c2cc3c(cc2-c2cccc(C#N)c2F)C(=O)NC3)c1 [Compound 183, 3-(6-(3-cyanophenyl)-3-oxoisoindolin-5-yl)-2-fluorobenzonitrile]
15 | 1130 | – | – | COc1ccc(-c2cc3c(cc2-c2cccc(C#N)c2)CNC3=O)c(F)c1F [Compound 184, 3-(6-(2,3-difluoro-4-methoxyphenyl)-1-oxoisoindolin-5-yl)benzonitrile]
16 | > 10000 | – | – | N#Cc1cccc(-c2cc3c(cc2-c2cc(F)ccc2F)C(=O)NC3)c1 [Compound 185, 3-(6-(2,5-difluorophenyl)-1-oxoisoindolin-5-yl)benzonitrile]
17 | > 10000 | – | – | COc1ccc(F)cc1-c1cc2c(cc1-c1cccc(C#N)c1)CNC2=O [Compound 186, 3-(6-(5-fluoro-2-methoxyphenyl)-1-oxoisoindolin-5-yl)benzonitrile]
18 | 9580 | – | – | N#Cc1cccc(-c2cc3c(cc2-c2cc(F)ccc2C#N)C(=O)NC3)c1 [Compound 187, 2-(6-(3-cyanophenyl)-3-oxoisoindolin-5-yl)-4-fluorobenzonitrile]
19 | > 10000 | – | – | Cc1ccc(C#N)cc1-c1cc2c(cc1-c1cccc(C#N)c1)CNC2=O [Compound 188, 3-(6-(3-cyanophenyl)-3-oxoisoindolin-5-yl)-4-methylbenzonitrilc]
20 | > 10000 | – | – | N#Cc1cccc(-c2cc3c(cc2-c2cc(F)cc(C#N)c2)C(=O)NC3)c1 [Compound 189, 3-(6-(3-cyanophenyl)-3-oxoisoindolin-5-yl)-5-fluorobenzonitrile]
21 | 191 | – | – | Cn1ccc(CCc2cc3c(cc2-c2ccc(F)cc2F)C(=O)NC3)n1 [Compound A1, 6-(2,4-difluorophenyl)-5-(2-(1-methyl-1H-pyrazol-3-yl)ethyl)isoindolin-1-one]
22 | 667 | – | – | O=C1NCc2cc(CCc3cncnc3)c(-c3ccc(F)cc3F)cc21 [Compound A2, 6-(2,4-difluorophenyl)-5-(2-(pyrimidin-5-yl)ethyl)isoindolin-1-one]
23 | 218 | – | – | [2H]C([2H])(c1ccn(C)n1)C([2H])([2H])c1cc2c(cc1-c1ccc(F)cc1F)C(=O)NC2 [Compound A3, 6-(2,4-difluorophenyl)-5-(2-(1-methyl-1H-pyrazol-3-yl)ethyl-1,1,2,2-d4)isoindolin-1-one]
24 | 481 | – | – | N#Cc1cccc(CCc2cc3c(cc2-c2ccc(F)cc2F)C(=O)NC3)c1 [Compound A4, 3-(2-(6-(2,4-difluorophenyl)-1-oxoisoindolin-5-yl)ethyl)benzonitrile]
25 | 205 | – | – | [2H]C1([2H])NC(=O)c2cc(-c3ccc(F)cc3F)c(C([2H])([2H])C([2H])([2H])c3ccn(C)n3)cc21 [Compound A5, 6-(2,4-difluorophenyl)-5-(2-(1-methyl-1H-pyrazol-3-yl)ethyl-1,1,2,2-d4)isoindolin-1-one-3,3-d2]
26 | 287 | – | – | [2H]C([2H])(c1cc2c(cc1-c1ccc(F)cc1F)C(=O)NC2)C([2H])([2H])c1ccnn1C [Compound A6, 6-(2,4-difluorophenyl)-5-(2-(1-methyl-1H-pyrazol-5-yl)ethyl-1,1,2,2-d4)isoindolin-1-one]
27 | 208 | – | – | Cn1nccc1CCc1cc2c(cc1-c1ccc(F)cc1F)C(=O)NC2 [Compound A7, 6-(2,4-difluorophenyl)-5-(2-(1-methyl-1H-pyrazol-5-yl)ethyl)isoindolin-1-one]
28 | 413 | – | – | O=C1NCc2cc(CCc3ccn(C4CC4)n3)c(-c3ccc(F)cc3F)cc21 [Compound A8, 5-(2-(1-cyclopropyl-1H-pyrazol-3-yl)ethyl)-6-(2,4-difluorophenyl)isoindolin-1-one]
29 | 273 | – | – | Cn1nc(CCc2cc3c(cc2-c2ccc(F)cc2F)C(=O)NC3)cc1C#N [Compound A9, 3-(2-(6-(2,4-difluorophenyl)-1-oxoisoindolin-5-yl)ethyl)-1-methyl-1H-pyrazole-5-carbonitrile]
30 | 528 | > 10000 | – | O=C1NCc2cc(CN3CC(O)(C(F)(F)F)C3)c(-c3ccc(F)cc3F)cc21 [Compound A12, 6-(2,4-difluorophenyl)-5-((3-hydroxy-3-(trifluoromethyl)azetidin-1-yl)methyl)isoindolin-1-one]

Row | Compound | IC50 (human mGlu2) [nM] | IC50 (rat mGlu2) [nM] | IC50 (Rat mGlu3) [nM]
31 | O=C1NCc2cc(-c3cnc4[nH]ccc4c3)c(-c3ccc(F)cc3F)cc21 [Compound 87, 6-(2,4-difluorophenyl)-5-(1H-pyrrolo[2,3-b]pyridin-5-yl)isoindolin-1-one] | – | 618 | > 10000
